From paper PMC11359809, “Probing the molecular basis for signal transduction through the Zinc-Activated Channel (ZAC)” (Biochemical pharmacology, 2021)
Values joined by “and” are separate entries in the source; they are usually repeats but may differ in a detail not shown here. Identical values can stand only once.

Legend:
Assay type in all cases: cell-based
ZAC^D118A = molecular target: T1, ZAC^D118A (Homo sapiens, UniProt Q401N2, A152T/D142A); assay: TEVC in oocytes, ZAC D118A mutant
T1 construct: expressed in transfected cells; host or cells: Xenopus oocytes injected with cRNA (pUNIV vector)
Description: (§1) The recordings were performed at room temperature.
(§2) Analysis of the data from the TEVC recordings were performed using Clampfit software version 10.5 (Molecular Devices, Crawley, UK) and GraphPad Prism version 7.0c (GraphPad Software, La Jolla, CA). Unless otherwise stated, the inward currents induced by agonists in oocytes were normalized to the maximal response elicited by a specific agonist (agonist Imax) on each oocyte. Concentration-response and concentration-inhibition curves were fitted in GraphPad Prism by nonlinear regression using the equation for sigmoidal dose-response with variable slope. Each data point represents the mean ± S.E.M. value of recordings performed on at least five oocytes in total from at least two different batches. […] The null hypothesis was rejected at P < 0.05, and the differences between the means were analyzed by Tukey’s multiple comparisons test.
(§3) The putative involvement of candidate residues in Clusters 1, 2, 3 and 4 in Zn^2+ binding to ZAC was investigated in by an elaborate alanine mutagenesis scanning. […] The determined IpH 4.0 value was used in part as a control and in part to enable the distinction of ZAC mutants non-responsive to Zn^2+ due to elimination of their ability to bind the metal ion from those where the mutation had eliminated cell surface expression and/or disrupted overall functionality of the receptor complex. […]

WT ZAC = molecular target: T2, WT ZAC (Homo sapiens, UniProt Q401N2, A152T); assay: TEVC in Xenopus oocytes expressing WT ZAC
T2 construct: expressed in transfected cells; host or cells: Xenopus oocytes injected with cRNA (pUNIV vector)
T2 sequence (Q401N2 26-412 A152T): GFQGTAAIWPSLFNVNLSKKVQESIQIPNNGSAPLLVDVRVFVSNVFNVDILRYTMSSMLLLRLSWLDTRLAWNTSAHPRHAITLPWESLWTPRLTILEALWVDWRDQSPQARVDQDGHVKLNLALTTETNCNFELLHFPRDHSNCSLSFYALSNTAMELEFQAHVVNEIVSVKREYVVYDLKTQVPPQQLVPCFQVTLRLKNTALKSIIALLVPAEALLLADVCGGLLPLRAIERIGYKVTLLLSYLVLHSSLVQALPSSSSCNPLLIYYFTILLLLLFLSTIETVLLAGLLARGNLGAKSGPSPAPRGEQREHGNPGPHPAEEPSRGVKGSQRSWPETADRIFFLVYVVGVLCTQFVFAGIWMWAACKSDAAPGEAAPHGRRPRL
Description: as §1
(§4) Analysis of the data from the TEVC recordings were performed using Clampfit software version 10.5 (Molecular Devices, Crawley, UK) and GraphPad Prism version 7.0c (GraphPad Software, La Jolla, CA). Unless otherwise stated, the inward currents induced by agonists in oocytes were normalized to the maximal response elicited by a specific agonist (agonist Imax) on each oocyte. Concentration-response and concentration-inhibition curves were fitted in GraphPad Prism by nonlinear regression using the equation for sigmoidal dose-response with variable slope. Each data point represents the mean ± S.E.M. value of recordings performed on at least five oocytes in total from at least two different batches. For the data where statistical analysis was performed, a one-way ANOVA was used. The null hypothesis was rejected at P < 0.05, and the differences between the means were analyzed by Tukey’s multiple comparisons test.

ZAC^H166A = molecular target: T3, ZAC^H166A (Homo sapiens, UniProt Q401N2, A152T/H190A); assay: TEVC in oocytes, ZAC H166A mutant
T3 construct: expressed in transfected cells; host or cells: Xenopus oocytes injected with cRNA (pUNIV vector)
Description: as §1, §2, §3

m5-HT3A/ZAC = molecular target: T4, m5-HT3A/ZAC (Mus musculus / Homo sapiens, UniProt P23979); assay: TEVC in oocytes expressing m5-HT3A/ZAC chimera
T4 sequence (P23979 24-246): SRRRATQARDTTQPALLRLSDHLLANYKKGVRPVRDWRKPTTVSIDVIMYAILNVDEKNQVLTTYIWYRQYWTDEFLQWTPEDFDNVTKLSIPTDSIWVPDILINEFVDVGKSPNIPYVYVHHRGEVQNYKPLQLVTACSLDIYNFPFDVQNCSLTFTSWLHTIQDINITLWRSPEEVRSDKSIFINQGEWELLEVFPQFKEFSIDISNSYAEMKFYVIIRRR
T4 sequence (Q401N2 231-412 partner): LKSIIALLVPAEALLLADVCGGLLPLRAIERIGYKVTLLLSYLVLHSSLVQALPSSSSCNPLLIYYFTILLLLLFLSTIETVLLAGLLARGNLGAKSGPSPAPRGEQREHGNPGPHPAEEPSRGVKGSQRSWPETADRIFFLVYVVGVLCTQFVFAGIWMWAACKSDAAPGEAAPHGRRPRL
From the text: The construction of the ZAC-pUNIV plasmid (encoding for the human WT ZAC that contains a Thr in position 128) has been described previously. The m5-HT3A and hα1 GlyR cDNAs were subcloned from their original vectors into pUNIV (Addgene, Watertown, MA) using NheI and EcoRI as restriction enzymes. […] The C-terminus modifications in these four chimeras were introduced in their cDNAs in the same way. Point mutations were introduced in cDNAs by use of the QuikChange mutagenesis kit (Stratagene, San Diego, CA). The validity and absence of unwanted mutations in the constructed cDNAs was verified by DNA sequencing (Macrogen Europe, Amsterdam, The Netherlands).
All cDNAs used for cRNA synthesis were inserted in the pUNIV vector. The cDNAs were linearized and subsequently transcribed and capped using the mMessage mMachine T7 RNA transcription kit (Ambion, Waltham, MA). […] Oocytes were incubated in a sterile modified Barth’s solution [88 mM NaCl, 1 mM KCl, 15 mM HEPES (pH 7.5), 2.4 mM NaHCO3, 0.41 mM CaCl2, 0.82 mM MgSO4, 0.3 mM Ca(NO3)2, 100 U/ml penicillin and 100 μg/ml streptomycin] at 16–18 °C. Based on experience gained with WT ZAC in a recent study, all TEVC recordings were performed two days after cRNA injection.
On the day of the TEVC recording, all compound dilutions were prepared in a saline solution [115 mM NaCl, 2.5 mM KCl, 10 mM MOPS (pH 7.5), 1.8 mM CaCl2, 0.1 mM MgCl2], and pH was adjusted to 7.5 (if needed). Oocytes were placed in a recording chamber continuously perfused with this saline solution, and the compounds were applied in the perfusate. Both voltage and current electrodes were agar-plugged with 3 M KCl with a resistance of 0.2–2.0 MΩ. Oocytes were voltage-clamped at −50 mV (except in the studies of the chimeras and their parent receptors where they were clamped at −60 mV, section 3.1), by a Gene Clamp 500B amplifier, and current signals were digitized by a Digidata 1322A (both from Axon Instruments, Union City, CA). Currents were recorded using pCLAMP 10 (Molecular Devices, Sunnyvale, CA). The recordings were performed at room temperature.
In all recordings, compounds or compound combinations were applied in the bath until the peak current decayed to a steady state (up to 30 s). […] The antagonist properties of compounds were determined by pre-application of the compound to the perfusate for 30 s followed by co-application of the compound and the agonist. In all recordings, washes of 1–5 min were executed between the ligand applications, the length of the washes depending on the agonist concentrations used and on the return to baseline current amplitude.
as §4

[1] = agonist, oocytes of the Cluster 3 recordings, n = 12
[2] = agonist, parallel recordings with Cluster 4 mutant, n = 5
[3] = agonist, section 3.1 recordings, n = 8
[4] = sustained (4 min) application of 10 mM Zn^2+

T1 sequence (Q401N2 26-412 D142A/A152T): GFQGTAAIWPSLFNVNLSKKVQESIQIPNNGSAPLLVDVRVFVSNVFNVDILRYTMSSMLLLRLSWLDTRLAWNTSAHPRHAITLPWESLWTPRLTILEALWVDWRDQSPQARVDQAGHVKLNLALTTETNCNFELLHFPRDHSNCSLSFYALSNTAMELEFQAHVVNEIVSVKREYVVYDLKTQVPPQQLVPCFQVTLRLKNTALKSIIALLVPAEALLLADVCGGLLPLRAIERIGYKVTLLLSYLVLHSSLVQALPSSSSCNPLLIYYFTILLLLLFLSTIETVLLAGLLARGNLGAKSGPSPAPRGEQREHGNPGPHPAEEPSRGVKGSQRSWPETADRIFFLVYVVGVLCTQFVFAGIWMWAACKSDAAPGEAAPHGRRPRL
T3 sequence (Q401N2 26-412 A152T/H190A): as the sequence (Q401N2 26-412 D142A/A152T) above, with A117D, H165A counted along it

[Cl-].[Cl-].[Zn+2] [Zn^2+, ZnCl2]
agonist properties compared to WT ZAC (ZAC^D118A): did not differ substantially | Imax (current amplitude evoked by saturating agonist) (WT ZAC; 10 mM Zn^2+, mean ± S.E.M., n = 19): 0.58 ± 0.10 μA | EC50 (WT ZAC; agonist, a couple of oocyte batches with 5–10-fold higher potency (Cluster 1 double/triple mutant experiments)): ~100 µM | nH ± S.E.M. (Hill slope) (WT ZAC; agonist, n = 8): 1.5 ± 0.2 | EC50 (WT ZAC; agonist, normal potency in the vast majority of oocyte batches in this work and in two other studies): 500 to 1000 µM | EC50 (WT ZAC; [1]): 98 µM | pEC50 ± S.E.M. (WT ZAC; [1]): 4.01 ± 0.03 | EC50 (WT ZAC; [2]): 310 µM | pEC50 ± S.E.M. (WT ZAC; [2]): 3.51 ± 0.05 | EC50 (WT ZAC; [3]): 500 µM | pEC50 ± S.E.M. (WT ZAC; [3]): 3.30 ± 0.04 | Iresidual, 4 min (WT ZAC; [4]): 21 % of Ipeak and 21 ± 3 % of Ipeak | Δtstart-to-peak (WT ZAC; [4]): 4.8 ± 0.5 s | agonist properties compared to WT ZAC (ZAC^H166A): WT-like agonist properties | I10 mM Zn2+ ± S.E.M. (m5-HT3A/ZAC; 10 mM Zn^2+, n = 4): 0.0037 ± 0.0013 μA | modulation of 5-HT (EC80)-evoked currents (m5-HT3A/ZAC; 5-HT 1 μM): monophasic concentration-inhibition relationship
